Laboratory results reported in PubChem BioAssay (NCI).
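Protocol summary: plate cells (96-well), add compound at 5 concentrations, incubate 48 h, interpolate endpoints linearly. GI50 = concentration required for 50% inhibition of growth. TGI denotes the concentration required for complete inhibition of growth.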

Key:
Assay in all cases: inhibition of tumour cell growth, NCI panel, 48 h; in the data active means GI50 below about 0.43 µM; inactive means the rest
SF-539 CNS = test system: SF-539 CNS
CAKI-1 renal = test system: CAKI-1 renal
SW-620 colon = test system: SW-620 colon
EKVX NSCLC = test system: EKVX NSCLC
HL-60(TB) leukemia = test system: HL-60(TB) leukemia
A549 NSCLC = test system: A549 NSCLC
OVCAR-5 ovarian = test system: OVCAR-5 ovarian
RPMI-8226 leukemia = test system: RPMI-8226 leukemia
UO-31 renal = test system: UO-31 renal
MOLT-4 leukemia = test system: MOLT-4 leukemia
OVCAR-3 ovarian = test system: OVCAR-3 ovarian
NCI-H23 lung = test system: NCI-H23 lung
T-47D breast = test system: T-47D breast
HT29 colon = test system: HT29 colon
786-0 renal = test system: 786-0 renal
U251 CNS = test system: U251 CNS
IGROV1 ovarian = test system: IGROV1 ovarian
COLO 205 colon = test system: COLO 205 colon
SK-MEL-5 melanoma = test system: SK-MEL-5 melanoma
DU-145 prostate = test system: DU-145 prostate
SK-MEL-2 melanoma = test system: SK-MEL-2 melanoma
MCF7 breast = test system: MCF7 breast
SF-268 CNS = test system: SF-268 CNS
KM12 colon = test system: KM12 colon
OVCAR-8 ovarian = test system: OVCAR-8 ovarian
TK-10 renal = test system: TK-10 renal
HCC-2998 colon = test system: HCC-2998 colon
M14 melanoma = test system: M14 melanoma
ACHN renal = test system: ACHN renal
LOX IMVI melanoma = test system: LOX IMVI melanoma
NCI-H522 lung = test system: NCI-H522 lung
UACC-62 melanoma = test system: UACC-62 melanoma
HOP-62 NSCLC = test system: HOP-62 NSCLC
NCI/ADR-RES ovarian = test system: NCI/ADR-RES ovarian
SN12C renal = test system: SN12C renal
A498 renal = test system: A498 renal
HOP-92 NSCLC = test system: HOP-92 NSCLC
SF-295 CNS = test system: SF-295 CNS
NCI-H460 lung = test system: NCI-H460 lung
NCI-H226 lung = test system: NCI-H226 lung
MDA-MB-435 = test system: MDA-MB-435
HS 578T breast = test system: HS 578T breast
K-562 leukemia = test system: K-562 leukemia
HCT-15 colon = test system: HCT-15 colon
PC-3 prostate = test system: PC-3 prostate
SNB-19 CNS = test system: SNB-19 CNS
UACC-257 melanoma = test system: UACC-257 melanoma
HCT-116 colon = test system: HCT-116 colon
SK-MEL-28 melanoma = test system: SK-MEL-28 melanoma
RXF 393 renal = test system: RXF 393 renal
MDA-MB-231 breast = test system: MDA-MB-231 breast

O=C1N=C(Nc2nc(-c3csc(NC4=NC(=O)/C(=C\c5ccccc5)S4)n3)cs2)S/C1=C/c1ccccc1
46.3 µM: TGI (ACHN renal) | TGI (HOP-62 NSCLC)
33.3 µM: TGI (TK-10 renal)
18.5 µM: TGI (UACC-62 melanoma)
33.4 µM: TGI (SK-MEL-5 melanoma)
45.5 µM: TGI (HCC-2998 colon)
active: GI50 (NCI-H226 lung) 0.337 µM
inactive: GI50 (SF-539 CNS) 13.6 µM | GI50 (CAKI-1 renal) 29.2 µM | GI50 (SW-620 colon) 31.7 µM | GI50 (EKVX NSCLC) 12.7 µM | GI50 (HL-60(TB) leukemia) 14.3 µM | GI50 (A549 NSCLC) 16.3 µM | GI50 (OVCAR-5 ovarian) 34 µM | GI50 (RPMI-8226 leukemia) 0.629 µM | GI50 (UO-31 renal) 17.5 µM | GI50 (MOLT-4 leukemia) 3.02 µM | GI50 (OVCAR-3 ovarian) 20.8 µM | GI50 (NCI-H23 lung) 17.6 µM | GI50 (T-47D breast) > 50 µM | GI50 (HT29 colon) 25.7 µM | GI50 (786-0 renal) 9.54 µM | GI50 (U251 CNS) 6.34 µM | GI50 (IGROV1 ovarian) 36.6 µM | GI50 (COLO 205 colon) 30.3 µM | GI50 (SK-MEL-5 melanoma) 5.87 µM | GI50 (DU-145 prostate) 16.8 µM | GI50 (SK-MEL-2 melanoma) > 50 µM | GI50 (MCF7 breast) 3.7 µM | GI50 (SF-268 CNS) 16.6 µM | GI50 (KM12 colon) 11.2 µM | GI50 (OVCAR-8 ovarian) 15.6 µM | GI50 (TK-10 renal) 10.1 µM | GI50 (HCC-2998 colon) 8.2 µM | GI50 (M14 melanoma) 4.63 µM | GI50 (ACHN renal) 12.2 µM | GI50 (LOX IMVI melanoma) > 50 µM | GI50 (NCI-H522 lung) 38.5 µM | GI50 (UACC-62 melanoma) 6.4 µM | GI50 (HOP-62 NSCLC) 7.97 µM | GI50 (NCI/ADR-RES ovarian) 15.9 µM | GI50 (SN12C renal) 5.64 µM | GI50 (A498 renal) > 50 µM | GI50 (HOP-92 NSCLC) 4.37 µM | GI50 (SF-295 CNS) 16.6 µM | GI50 (NCI-H460 lung) 12.8 µM | GI50 (MDA-MB-435) 14.7 µM | GI50 (HS 578T breast) > 50 µM | GI50 (K-562 leukemia) 6.28 µM | GI50 (HCT-15 colon) 11.2 µM | GI50 (PC-3 prostate) 8.98 µM | GI50 (SNB-19 CNS) 49.1 µM | GI50 (UACC-257 melanoma) 12.2 µM | GI50 (HCT-116 colon) 3.5 µM | GI50 (SK-MEL-28 melanoma) > 50 µM | GI50 (RXF 393 renal) 18.5 µM | GI50 (MDA-MB-231 breast) 4.78 µM
12.8 µM: TGI (NCI-H226 lung)
20.5 µM: TGI (HOP-92 NSCLC)
39.7 µM: TGI (SF-539 CNS)
34.9 µM: TGI (786-0 renal)
48.9 µM: TGI (K-562 leukemia)
3.35 µM: TGI (RPMI-8226 leukemia)
20.6 µM: TGI (SN12C renal)
29 µM: TGI (HCT-116 colon)
18.8 µM: TGI (MDA-MB-231 breast)
> 50 µM: TGI (CAKI-1 renal) | TGI (SW-620 colon) | TGI (EKVX NSCLC) | TGI (A549 NSCLC) | TGI (OVCAR-5 ovarian) | TGI (UO-31 renal) | TGI (MOLT-4 leukemia) | TGI (OVCAR-3 ovarian) | TGI (NCI-H23 lung) | TGI (T-47D breast) | TGI (HT29 colon) | TGI (U251 CNS) | TGI (IGROV1 ovarian) | TGI (COLO 205 colon) | TGI (DU-145 prostate) | TGI (SK-MEL-2 melanoma) | TGI (MCF7 breast) | TGI (SF-268 CNS) | TGI (KM12 colon) | TGI (OVCAR-8 ovarian) | TGI (LOX IMVI melanoma) | TGI (NCI-H522 lung) | TGI (NCI/ADR-RES ovarian) | TGI (A498 renal) | TGI (SF-295 CNS) | TGI (NCI-H460 lung) | TGI (MDA-MB-435) | TGI (HS 578T breast) | TGI (HCT-15 colon) | TGI (SNB-19 CNS) | TGI (SK-MEL-28 melanoma) | TGI (RXF 393 renal)
36.8 µM: TGI (HL-60(TB) leukemia)
32.3 µM: TGI (M14 melanoma)
42.7 µM: TGI (PC-3 prostate)
28.1 µM: TGI (UACC-257 melanoma)
